Results published in patent US8492378B2, “GSK-3β inhibitor” (Takeda Pharmaceutical Company Limited, priority 2006, dated 2013).

Assays:
Test in all cases: Serine threonine kinase inhibitory activity ([γ-33P]ATP)
Type in all cases: biochemical
p38α = p38α (Homo sapiens, UniProt Q16539); conditions: read-out: 50% inhibitory activity against other kinases: p38α
Description: (§1) Inhibitory action on various purified proteins of serine, threonine kinases (p38α, JNK1, IKKβ, ASK1, TAK1, MEKK1, PKCθ, GSK-3β, PLK1, TTK, Aurora A, MEK1, MEK5, B-RAF, ERK1) was examined. As a reaction mixture, 37.5 μL of 25 mM HEPES (pH 7.5), 10 mM magnesium acetate, 1 mM DTT, each concentration of purified protein and a synthesis substrate were used. The mixture was reacted in the presence or absence of a test compound (2.5 μL/the reaction mixture) dissolved in DMSO at each concentration at room temperature for 5 min. Further, 10 μL of a mixture of 2.5 μM ATP and 10 μCi/ml [γ-^33P]ATP (DAIICHI PURE CHEMICALS) was added and the mixture was reacted at room temperature for 30 min. After quenching the reaction, the amount of phosphorylated peptide was measured by Top-Count (Packard). The concentration of the test compound necessary for 50% inhibition (IC50 value) was calculated by PRISM 3.0 (GraphPad Software).

IKKβ = target: T1, IKKβ (Homo sapiens, UniProt O14920); conditions: read-out: 50% inhibitory activity against other kinases: IKKβ
T1 sequence (O14920 1-756): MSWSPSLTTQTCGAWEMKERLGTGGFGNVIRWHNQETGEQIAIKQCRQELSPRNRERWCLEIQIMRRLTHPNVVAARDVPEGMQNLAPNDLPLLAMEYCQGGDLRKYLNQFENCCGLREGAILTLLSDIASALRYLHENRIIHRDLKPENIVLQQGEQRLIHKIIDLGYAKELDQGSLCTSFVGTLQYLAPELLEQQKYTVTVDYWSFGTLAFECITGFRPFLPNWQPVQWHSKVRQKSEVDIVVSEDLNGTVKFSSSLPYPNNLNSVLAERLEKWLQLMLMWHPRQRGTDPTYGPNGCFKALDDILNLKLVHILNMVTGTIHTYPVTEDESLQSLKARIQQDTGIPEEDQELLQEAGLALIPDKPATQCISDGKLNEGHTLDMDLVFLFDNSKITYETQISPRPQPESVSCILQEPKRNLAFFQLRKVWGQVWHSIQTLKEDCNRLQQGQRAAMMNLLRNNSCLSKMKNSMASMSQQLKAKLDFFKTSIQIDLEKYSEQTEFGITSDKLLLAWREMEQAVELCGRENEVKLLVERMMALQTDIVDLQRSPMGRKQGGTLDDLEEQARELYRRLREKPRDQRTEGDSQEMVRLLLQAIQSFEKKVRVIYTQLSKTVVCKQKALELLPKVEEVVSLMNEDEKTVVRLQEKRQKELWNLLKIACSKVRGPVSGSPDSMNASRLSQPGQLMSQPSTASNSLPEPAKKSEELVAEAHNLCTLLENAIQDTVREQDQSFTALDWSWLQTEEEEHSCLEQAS
Description: as §1

B-RAF = B-RAF (Homo sapiens, UniProt P15056); conditions: read-out: 50% inhibitory activity against other kinases: B-RAF
Chain of B-RAF (P15056 whole entry): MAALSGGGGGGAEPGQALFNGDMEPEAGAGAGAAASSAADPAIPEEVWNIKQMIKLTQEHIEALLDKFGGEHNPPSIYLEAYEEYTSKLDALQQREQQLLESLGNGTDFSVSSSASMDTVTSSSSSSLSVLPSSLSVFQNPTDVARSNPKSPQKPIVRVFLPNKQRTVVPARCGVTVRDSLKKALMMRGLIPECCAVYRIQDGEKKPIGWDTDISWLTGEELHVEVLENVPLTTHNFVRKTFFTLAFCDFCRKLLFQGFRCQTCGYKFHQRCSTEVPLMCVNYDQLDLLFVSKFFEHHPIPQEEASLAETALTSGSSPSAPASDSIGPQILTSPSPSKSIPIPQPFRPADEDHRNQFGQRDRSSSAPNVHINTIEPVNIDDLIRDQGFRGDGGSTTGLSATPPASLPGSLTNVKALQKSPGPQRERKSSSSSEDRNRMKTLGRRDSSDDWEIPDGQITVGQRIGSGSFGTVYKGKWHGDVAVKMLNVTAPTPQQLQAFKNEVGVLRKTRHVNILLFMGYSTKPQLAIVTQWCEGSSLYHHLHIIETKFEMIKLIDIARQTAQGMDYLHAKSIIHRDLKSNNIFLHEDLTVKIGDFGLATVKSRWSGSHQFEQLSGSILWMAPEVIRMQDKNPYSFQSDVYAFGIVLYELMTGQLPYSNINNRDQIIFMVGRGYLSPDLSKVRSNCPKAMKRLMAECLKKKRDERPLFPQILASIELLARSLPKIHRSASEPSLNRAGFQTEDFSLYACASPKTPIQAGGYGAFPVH
Description: as §1

MEK1 = MEK1 (Homo sapiens, UniProt Q02750); conditions: read-out: 50% inhibitory activity against other kinases: MEK1
Chain of MEK1 (Q02750 whole entry): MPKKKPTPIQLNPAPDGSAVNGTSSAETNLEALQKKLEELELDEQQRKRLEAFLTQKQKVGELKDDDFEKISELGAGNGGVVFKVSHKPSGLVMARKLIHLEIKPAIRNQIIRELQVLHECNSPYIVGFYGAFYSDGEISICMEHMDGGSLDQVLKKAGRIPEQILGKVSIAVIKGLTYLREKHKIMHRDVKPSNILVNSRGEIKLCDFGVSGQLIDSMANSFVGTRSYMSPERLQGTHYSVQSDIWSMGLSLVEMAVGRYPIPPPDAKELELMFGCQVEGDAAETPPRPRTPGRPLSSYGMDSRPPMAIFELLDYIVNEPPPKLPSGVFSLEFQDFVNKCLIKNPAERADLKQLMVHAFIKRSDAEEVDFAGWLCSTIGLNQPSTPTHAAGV
Description: as §1

ERK1 = ERK1 (Homo sapiens, UniProt P27361); conditions: read-out: 50% inhibitory activity against other kinases: ERK1
Description: as §1

TTK = target: T2, TTK (Homo sapiens, UniProt P33981); conditions: read-out: 50% inhibitory activity against other kinases: TTK
T2 sequence (P33981 1-857): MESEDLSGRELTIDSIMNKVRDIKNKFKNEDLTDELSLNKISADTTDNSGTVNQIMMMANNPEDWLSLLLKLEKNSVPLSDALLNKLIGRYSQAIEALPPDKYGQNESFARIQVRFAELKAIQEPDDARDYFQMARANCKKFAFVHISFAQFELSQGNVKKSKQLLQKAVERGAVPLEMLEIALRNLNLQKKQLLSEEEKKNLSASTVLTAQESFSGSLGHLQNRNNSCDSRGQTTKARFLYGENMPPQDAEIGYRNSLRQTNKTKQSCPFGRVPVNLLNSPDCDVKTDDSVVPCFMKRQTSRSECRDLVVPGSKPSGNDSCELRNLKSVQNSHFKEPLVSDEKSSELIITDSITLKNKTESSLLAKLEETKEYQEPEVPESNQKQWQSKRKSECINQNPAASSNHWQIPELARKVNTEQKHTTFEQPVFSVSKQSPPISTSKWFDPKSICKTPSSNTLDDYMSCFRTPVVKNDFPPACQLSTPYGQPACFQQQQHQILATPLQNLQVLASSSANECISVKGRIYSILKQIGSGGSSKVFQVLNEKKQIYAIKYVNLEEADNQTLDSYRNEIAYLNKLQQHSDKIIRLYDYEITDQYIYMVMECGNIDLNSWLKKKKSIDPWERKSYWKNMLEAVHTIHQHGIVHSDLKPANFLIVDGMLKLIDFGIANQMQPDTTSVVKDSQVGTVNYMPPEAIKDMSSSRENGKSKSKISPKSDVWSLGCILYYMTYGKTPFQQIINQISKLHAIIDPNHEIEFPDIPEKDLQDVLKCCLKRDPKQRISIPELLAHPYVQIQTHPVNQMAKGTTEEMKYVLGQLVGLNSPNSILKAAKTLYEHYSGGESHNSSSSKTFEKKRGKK
Description: as §1

Aurora A = Aurora A (Homo sapiens, UniProt O14965); conditions: read-out: 50% inhibitory activity against other kinases: Aurora A
Description: as §1

MEKK1 = MEKK1 (Homo sapiens, UniProt Q13233); conditions: read-out: 50% inhibitory activity against other kinases: MEKK1
Description: as §1

ASK1 = ASK1 (Homo sapiens, UniProt Q99683); conditions: read-out: 50% inhibitory activity against other kinases: ASK1
Chain of ASK1 (Q99683 whole entry): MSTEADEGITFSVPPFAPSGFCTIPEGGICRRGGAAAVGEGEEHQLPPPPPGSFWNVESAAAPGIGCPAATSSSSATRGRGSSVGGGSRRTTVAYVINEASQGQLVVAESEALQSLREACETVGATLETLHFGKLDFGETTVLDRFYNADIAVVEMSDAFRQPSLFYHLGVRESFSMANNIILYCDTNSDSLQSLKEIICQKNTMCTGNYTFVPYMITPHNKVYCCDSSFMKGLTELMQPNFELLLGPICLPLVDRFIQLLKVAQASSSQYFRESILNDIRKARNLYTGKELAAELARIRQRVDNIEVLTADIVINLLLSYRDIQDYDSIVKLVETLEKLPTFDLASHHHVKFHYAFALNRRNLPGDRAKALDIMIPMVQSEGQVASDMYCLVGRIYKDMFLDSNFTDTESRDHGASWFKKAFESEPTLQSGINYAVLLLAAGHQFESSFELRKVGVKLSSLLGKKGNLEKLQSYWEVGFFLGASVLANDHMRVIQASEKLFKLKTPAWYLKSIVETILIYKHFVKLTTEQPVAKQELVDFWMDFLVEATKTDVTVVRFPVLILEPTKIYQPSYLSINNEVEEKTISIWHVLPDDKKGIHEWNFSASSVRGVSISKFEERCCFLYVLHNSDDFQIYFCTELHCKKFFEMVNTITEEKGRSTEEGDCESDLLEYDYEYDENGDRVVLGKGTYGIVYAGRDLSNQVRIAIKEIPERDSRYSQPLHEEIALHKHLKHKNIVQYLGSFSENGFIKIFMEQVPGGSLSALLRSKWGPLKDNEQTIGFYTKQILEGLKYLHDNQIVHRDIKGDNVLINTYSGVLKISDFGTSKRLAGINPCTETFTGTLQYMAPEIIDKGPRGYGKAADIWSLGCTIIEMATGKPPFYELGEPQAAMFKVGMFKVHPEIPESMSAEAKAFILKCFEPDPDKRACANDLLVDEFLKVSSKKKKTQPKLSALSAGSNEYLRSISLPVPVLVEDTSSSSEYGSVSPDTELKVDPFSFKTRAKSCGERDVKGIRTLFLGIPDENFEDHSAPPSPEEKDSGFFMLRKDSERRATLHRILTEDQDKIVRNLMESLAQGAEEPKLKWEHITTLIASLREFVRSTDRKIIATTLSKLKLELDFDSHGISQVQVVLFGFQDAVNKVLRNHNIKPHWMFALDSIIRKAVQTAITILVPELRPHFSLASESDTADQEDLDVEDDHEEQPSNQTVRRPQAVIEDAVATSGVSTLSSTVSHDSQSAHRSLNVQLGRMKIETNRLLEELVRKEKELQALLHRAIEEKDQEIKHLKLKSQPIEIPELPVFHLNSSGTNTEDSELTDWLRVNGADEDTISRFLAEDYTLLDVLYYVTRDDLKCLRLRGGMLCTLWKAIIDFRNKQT
Description: as §1

MEK5 = MEK5 (Homo sapiens, UniProt Q13163); conditions: read-out: 50% inhibitory activity against other kinases: MEK5
Description: as §1

PLK1 = PLK1 (Homo sapiens, UniProt P53350); conditions: read-out: 50% inhibitory activity against other kinases: PLK1
Chain of PLK1 (P53350 whole entry): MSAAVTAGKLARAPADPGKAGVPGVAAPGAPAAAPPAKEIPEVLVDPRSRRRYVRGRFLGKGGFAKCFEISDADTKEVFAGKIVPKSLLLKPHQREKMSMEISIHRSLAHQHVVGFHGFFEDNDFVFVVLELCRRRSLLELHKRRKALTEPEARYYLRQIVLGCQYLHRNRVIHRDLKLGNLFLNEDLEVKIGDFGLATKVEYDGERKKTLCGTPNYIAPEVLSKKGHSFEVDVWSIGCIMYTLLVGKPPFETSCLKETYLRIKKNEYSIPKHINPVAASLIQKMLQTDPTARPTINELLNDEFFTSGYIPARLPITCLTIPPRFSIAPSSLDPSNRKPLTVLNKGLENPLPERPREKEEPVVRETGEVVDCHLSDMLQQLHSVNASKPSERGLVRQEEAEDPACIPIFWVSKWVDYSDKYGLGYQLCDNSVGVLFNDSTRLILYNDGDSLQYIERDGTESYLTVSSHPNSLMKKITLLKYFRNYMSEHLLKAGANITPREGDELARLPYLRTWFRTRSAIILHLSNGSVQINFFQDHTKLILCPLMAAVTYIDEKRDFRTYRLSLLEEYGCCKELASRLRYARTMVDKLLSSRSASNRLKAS
Description: as §1

TAK1 = TAK1 (Homo sapiens, UniProt O43318); conditions: read-out: 50% inhibitory activity against other kinases: TAK1
Chain of TAK1 (O43318 whole entry): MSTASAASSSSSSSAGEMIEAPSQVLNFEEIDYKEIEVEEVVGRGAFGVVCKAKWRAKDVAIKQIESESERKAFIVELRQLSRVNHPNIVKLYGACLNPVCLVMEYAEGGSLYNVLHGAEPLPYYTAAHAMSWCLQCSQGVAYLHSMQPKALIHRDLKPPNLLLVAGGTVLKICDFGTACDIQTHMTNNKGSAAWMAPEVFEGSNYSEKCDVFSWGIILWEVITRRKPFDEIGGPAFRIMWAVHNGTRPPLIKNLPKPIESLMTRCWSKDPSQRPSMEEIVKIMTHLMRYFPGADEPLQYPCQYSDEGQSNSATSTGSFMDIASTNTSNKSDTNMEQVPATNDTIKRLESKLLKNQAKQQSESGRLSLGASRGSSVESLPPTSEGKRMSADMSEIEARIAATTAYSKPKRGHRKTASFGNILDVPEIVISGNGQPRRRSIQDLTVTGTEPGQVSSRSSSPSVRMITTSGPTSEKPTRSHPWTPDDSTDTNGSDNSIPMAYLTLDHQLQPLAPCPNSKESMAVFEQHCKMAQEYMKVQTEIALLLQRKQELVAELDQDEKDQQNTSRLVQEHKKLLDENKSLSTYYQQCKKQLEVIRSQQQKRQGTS
Chain of TAK1 (Q15750 whole entry, further chain): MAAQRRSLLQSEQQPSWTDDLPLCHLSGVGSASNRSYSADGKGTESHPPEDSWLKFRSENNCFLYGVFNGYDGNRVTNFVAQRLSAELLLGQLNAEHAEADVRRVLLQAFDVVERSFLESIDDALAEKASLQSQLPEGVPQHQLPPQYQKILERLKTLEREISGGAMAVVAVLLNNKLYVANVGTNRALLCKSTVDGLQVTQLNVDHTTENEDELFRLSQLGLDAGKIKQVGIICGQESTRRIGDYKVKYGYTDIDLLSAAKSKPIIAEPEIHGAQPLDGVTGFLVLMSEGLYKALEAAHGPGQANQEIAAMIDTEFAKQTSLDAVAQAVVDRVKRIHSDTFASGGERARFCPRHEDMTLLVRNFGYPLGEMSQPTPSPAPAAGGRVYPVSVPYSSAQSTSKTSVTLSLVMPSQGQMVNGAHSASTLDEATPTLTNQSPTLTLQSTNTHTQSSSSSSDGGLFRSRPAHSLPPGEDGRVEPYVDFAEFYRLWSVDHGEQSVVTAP
Description: as §1

PKCθ = PKCθ (Homo sapiens, UniProt Q04759); conditions: read-out: 50% inhibitory activity against other kinases: PKCθ
Description: as §1

JNK1 = JNK1 (Homo sapiens, UniProt P45983); conditions: read-out: 50% inhibitory activity against other kinases: JNK1
Chain of JNK1 (P45983 whole entry): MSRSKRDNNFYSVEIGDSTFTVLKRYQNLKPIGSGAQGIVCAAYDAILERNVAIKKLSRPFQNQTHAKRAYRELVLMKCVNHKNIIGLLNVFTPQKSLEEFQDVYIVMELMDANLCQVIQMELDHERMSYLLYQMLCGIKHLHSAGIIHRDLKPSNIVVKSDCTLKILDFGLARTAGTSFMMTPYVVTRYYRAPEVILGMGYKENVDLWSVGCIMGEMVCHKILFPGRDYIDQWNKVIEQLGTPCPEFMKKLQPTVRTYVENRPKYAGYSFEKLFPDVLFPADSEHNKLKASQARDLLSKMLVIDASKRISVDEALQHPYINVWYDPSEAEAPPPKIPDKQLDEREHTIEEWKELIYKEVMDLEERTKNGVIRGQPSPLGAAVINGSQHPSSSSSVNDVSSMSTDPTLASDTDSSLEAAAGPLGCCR
Description: as §1

GSK-3β = GSK-3β (Homo sapiens, UniProt P49841); conditions: [γ-33P]ATP kinase panel; read-out: IC50 values against GSK-3β
Description: as §1, with “Further, 10 μL of a mixture of 2.5 μM ATP and 10 μCi/ml [γ-^33P]ATP (DAIICHI PURE CHEMICALS) was added and the mixture was reacted at room temperature for 30 min.” left out, “(Packard).” for “(Packard). The concentration of the test compound necessary for 50% inhibition (IC50 value) was calculated by PRISM 3.0 (GraphPad Software).”

Chain of p38α (Q16539 whole entry): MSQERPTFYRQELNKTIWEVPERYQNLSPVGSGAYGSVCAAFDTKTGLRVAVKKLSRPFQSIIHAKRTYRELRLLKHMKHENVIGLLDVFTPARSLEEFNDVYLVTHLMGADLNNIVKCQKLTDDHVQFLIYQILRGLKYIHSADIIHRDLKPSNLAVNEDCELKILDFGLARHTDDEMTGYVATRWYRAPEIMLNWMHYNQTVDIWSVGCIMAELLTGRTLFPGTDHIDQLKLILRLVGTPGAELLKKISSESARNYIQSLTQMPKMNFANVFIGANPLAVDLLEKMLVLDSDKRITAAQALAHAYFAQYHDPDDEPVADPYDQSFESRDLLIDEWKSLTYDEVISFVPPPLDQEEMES

IC50 (p38α) [µM] | IC50 (IKKβ) [µM] | IC50 (B-RAF) [µM] | IC50 (MEK1) [µM] | IC50 (ERK1) [µM] | IC50 (TTK) [µM] | IC50 (Aurora A) [µM] | IC50 (MEKK1) [µM] | IC50 (ASK1) [µM] | IC50 (MEK5) [µM] | IC50 (PLK1) [µM] | IC50 (TAK1) [µM] | IC50 (PKCθ) [µM] | IC50 (JNK1) [µM] | IC50 (GSK-3β) [µM] | Compound
> 10 | > 10 | > 10 | > 10 | > 10 | > 10 | > 10 | > 10 | > 10 | > 10 | > 10 | > 10 | > 10 | > 10 | 0.19 | COc1ccc(-c2coc3ccc(-c4nnc(SC)o4)cc23)cc1 [Example 165, 2-[3-(4-methoxyphenyl)-1-benzofuran-5-yl]-5-(methylthio)-1,3,4-oxadiazole]
> 10 | > 10 | > 10 | > 10 | > 10 | > 10 | > 10 | > 10 | > 10 | > 10 | > 10 | > 10 | > 10 | > 10 | 0.14 | COc1ccc(CSc2nnc(-c3ccnc(N)c3)o2)cc1F [Example 209, 4-[5-[(3-fluoro-4-methoxybenzyl)thio]-1,3,4-oxadiazol-2-yl]pyridin-2-amine]
> 10 | > 10 | > 10 | > 10 | > 10 | > 10 | > 10 | > 10 | > 10 | > 10 | > 10 | > 10 | > 10 | > 10 | – | COc1ccc(CSc2nnc(-c3ccc4c(c3)OCO4)o2)cc1F [Reference Example 71, 2-(1,3-benzodioxol-5-yl)-5-[(3-fluoro-4-methoxybenzyl)thio]-1,3,4-oxadiazole, reference compound]
